Data set [1] in a line: Antiproliferative activity against HEK293 cells assessed as cell growth inhibition at 10 uM incubated for 48 hrs by MTT assay relative to control. The data set is classed as toxicity, cell-based. To be noted: human. (In general: Formazan colour is commonly taken as a measure of viable cells.)
Data set [2] concerns HCT-116. The data set can be described thus: Antiproliferative activity against human HCT-116 cells assessed as cell growth inhibition at 10 uM incubated for 48 hrs by MTT assay relative to control. The format is functional.
Data set [3] concerns the target Cyclin-dependent kinase 7/ cyclin H (Homo sapiens) (UniProt P51946+P50613). The data set can be described thus: Inhibition of CDK7/cyclin H (unknown origin) at 10 uM by ADP-Glo assay relative to control. The data set is classed as protein-complex assay. A general note: In ADP-Glo the light output rises with the ADP produced.
Data set [4] concerns the target CDK9/Cyclin K (Homo sapiens) (UniProt P50750+O75909). The data set can be described thus: Inhibition of CDK9/cyclin K (unknown origin) at 10 uM by ADP-Glo assay relative to control. The data set is classed as protein-complex assay.
Data set [5] relates to MIA PaCa-2. The data set is described as follows: Antiproliferative activity against human MIA PaCa-2 cells assessed as cell growth inhibition at 10 uM incubated for 48 hrs by MTT assay relative to control. The data set is classed as functional.
The test system of data set [6] is HCT-116. The data set can be described thus: Antiproliferative activity against human HCT-116 cells assessed as cell growth inhibition incubated for 48 hrs by MTT assay. The data set is classed as functional.
The target in data set [7] is Cyclin-dependent kinase 7/ cyclin H (Homo sapiens, UniProt P50613). The data set is described as follows: Inhibition of CDK7/cyclin H (unknown origin) by ADP-Glo assay. The format is protein-complex assay.
Chain of Cyclin-dependent kinase 7/ cyclin H (P51946 whole entry): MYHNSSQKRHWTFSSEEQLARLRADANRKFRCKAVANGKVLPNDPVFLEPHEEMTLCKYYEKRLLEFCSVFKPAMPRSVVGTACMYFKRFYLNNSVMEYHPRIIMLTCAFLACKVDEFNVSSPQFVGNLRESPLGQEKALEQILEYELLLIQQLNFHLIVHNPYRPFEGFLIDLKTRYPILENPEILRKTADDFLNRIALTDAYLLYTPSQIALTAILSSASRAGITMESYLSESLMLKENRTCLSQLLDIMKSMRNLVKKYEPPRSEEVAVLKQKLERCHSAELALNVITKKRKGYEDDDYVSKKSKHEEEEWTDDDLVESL
Chain of Cyclin-dependent kinase 7/ cyclin H (P50613 whole entry): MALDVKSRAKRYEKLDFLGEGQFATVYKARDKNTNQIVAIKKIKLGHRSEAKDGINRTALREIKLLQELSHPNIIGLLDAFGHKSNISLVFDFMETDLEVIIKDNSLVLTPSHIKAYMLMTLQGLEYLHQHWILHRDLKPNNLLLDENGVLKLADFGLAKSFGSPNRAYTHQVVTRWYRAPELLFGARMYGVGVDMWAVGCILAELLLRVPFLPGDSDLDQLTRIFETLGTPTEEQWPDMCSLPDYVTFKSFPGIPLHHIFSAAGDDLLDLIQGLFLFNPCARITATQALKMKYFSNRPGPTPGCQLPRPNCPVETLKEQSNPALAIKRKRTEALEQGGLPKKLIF
The subject of data set [8] is MIA PaCa-2. The data set can be described thus: Antiproliferative activity against human MIA PaCa-2 cells assessed as cell growth inhibition incubated for 48 hrs by MTT assay. The data set is classed as functional.
A short description of data set [9]: Antiproliferative activity against HEK293 cells assessed as cell growth inhibition incubated for 48 hrs by MTT assay. To be noted: human. The format is toxicity, cell-based.
The next data set has as its target CDK9/cyclin T1 (Homo sapiens, UniProt P50750). The data set is described as follows: Inhibition of CDK9/cyclin T1 (unknown origin) by ADP-Glo assay. The data set is classed as protein-complex assay.

Chain of CDK9/cyclin T1 (O60563 whole entry): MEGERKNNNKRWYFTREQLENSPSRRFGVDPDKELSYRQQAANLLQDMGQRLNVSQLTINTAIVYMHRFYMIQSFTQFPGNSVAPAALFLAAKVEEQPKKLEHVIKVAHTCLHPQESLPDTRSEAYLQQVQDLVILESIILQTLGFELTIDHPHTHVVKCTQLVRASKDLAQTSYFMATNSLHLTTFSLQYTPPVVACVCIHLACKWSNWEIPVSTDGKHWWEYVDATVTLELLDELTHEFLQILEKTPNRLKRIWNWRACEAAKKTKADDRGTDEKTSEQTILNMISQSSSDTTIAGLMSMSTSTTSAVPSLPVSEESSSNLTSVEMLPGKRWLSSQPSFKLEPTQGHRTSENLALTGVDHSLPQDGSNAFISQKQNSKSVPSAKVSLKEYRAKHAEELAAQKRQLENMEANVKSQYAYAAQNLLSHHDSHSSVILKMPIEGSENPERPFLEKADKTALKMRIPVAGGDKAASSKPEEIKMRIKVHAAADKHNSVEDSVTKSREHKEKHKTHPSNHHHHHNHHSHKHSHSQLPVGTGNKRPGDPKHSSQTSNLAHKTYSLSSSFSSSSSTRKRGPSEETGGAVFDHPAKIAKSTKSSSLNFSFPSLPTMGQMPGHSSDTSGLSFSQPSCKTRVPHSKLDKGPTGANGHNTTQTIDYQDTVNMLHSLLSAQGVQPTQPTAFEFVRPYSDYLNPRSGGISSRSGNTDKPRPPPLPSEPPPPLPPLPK
Chain of CDK9/cyclin T1 (P50750 whole entry): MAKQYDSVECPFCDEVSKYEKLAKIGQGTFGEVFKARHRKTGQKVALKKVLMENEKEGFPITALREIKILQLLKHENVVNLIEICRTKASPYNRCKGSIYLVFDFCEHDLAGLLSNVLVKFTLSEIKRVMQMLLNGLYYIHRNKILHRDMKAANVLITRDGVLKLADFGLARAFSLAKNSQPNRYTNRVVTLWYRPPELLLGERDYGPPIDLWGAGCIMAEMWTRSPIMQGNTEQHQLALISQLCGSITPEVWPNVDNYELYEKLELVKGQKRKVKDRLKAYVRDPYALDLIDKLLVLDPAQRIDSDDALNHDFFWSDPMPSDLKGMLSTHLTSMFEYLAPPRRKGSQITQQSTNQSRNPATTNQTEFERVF

One may read the inhibition as the percentage by which the read-out fell short of the control. As for `C[N+]1([O-])CC[C@H](c2c(O)cc(O)c3c(=O)cc(/C=C/c4ccccc4I)oc23)[C@H](O)C1` (stereo partly drawn), the inhibition at 48 h, 10 µM in data set [1] was 13.4%. Moreover, the inhibition at 10 µM came out at 38.3% with HCT-116 [2] and 38.1% in the data set with MIA PaCa-2 [5]. Besides, the inhibition came out at 89.6% in [3] and 64.8% in data set [4].

In the case of `COc1cc(O)c2c(=O)cc(/C=C/c3c(F)ccc(Cl)c3F)oc2c1[C@H]1CC[N+](C)([O-])C[C@H]1OC` (stereo partly drawn), in [1], the inhibition at 48 h, 10 µM was determined as 15.5%. In addition, the inhibition at 10 µM in the data set on HCT-116 [2] worked out at 38.1%; in the data set with MIA PaCa-2 [5] it was 39%. Besides, the inhibition in data set [3] is 50.3%; in data set [4], 17%.

Consider `COc1cc(O)c2c(=O)cc(/C=C/c3ccc(F)c(Cl)c3)oc2c1[C@H]1CC[N+](C)([O-])C[C@H]1O` (stereo partly drawn), for which the inhibition at 48 h, 10 µM in data set [1] was determined as 6.9%. For the same molecule, the inhibition at 10 µM amounted to 33.7% in the data set on HCT-116 [2] and 27.8% in the data set with MIA PaCa-2 [5]. For the same molecule, the inhibition amounted to 56.7% in [3] and 28.4% in [4].

On to `C[N+]1([O-])CC[C@H](c2c(O)cc(O)c3c(=O)cc(/C=C/c4ccc(Cl)cc4Cl)oc23)[C@H](O)C1` (stereo partly drawn), for which the inhibition at 48 h, 10 µM in data set [1] stood at 18.2%. Also, the inhibition at 10 µM was 54% with HCT-116 [2] and 41.2% in the data set on MIA PaCa-2 [5]. The values for the inhibition in [3] and in [4] were 49.6% and 43.2%, respectively.

The term GI50 denotes the concentration giving 50% growth inhibition. The term IC50 denotes the concentration that gives 50% inhibition. A lower IC50 goes with higher potency. In the case of `C[N+]1([O-])CC[C@H](c2c(O)cc(O)c3c(=O)cc(/C=C/c4c(F)cccc4Cl)oc23)[C@H](O)C1` (stereo partly drawn), the GI50 is 4.56 µM with HCT-116 [6] and 7.05 µM in the data set on MIA PaCa-2 [8]. The inhibition at 48 h, 10 µM in [1] is 19.3%. The inhibition at 10 µM in the data set with HCT-116 [2] amounted to 61.7%; with MIA PaCa-2 [5], 56.1%. Further, the IC50 in data set [7] came out at 5.14 µM; at CDK9/cyclin T1, 1.43 µM. This molecule also returned an inhibition in [3] of 48.5%. In addition, the GI50 at 48 h in [9] was above 100 µM.

Regarding `C[N+]1([O-])CC[C@H](c2c(O)cc(O)c3c(=O)cc(/C=C/c4ccc(Cl)cc4Br)oc23)[C@H](O)C1` (stereo partly drawn), in data set [1], the inhibition at 48 h, 10 µM was 21.4%. The inhibition at 10 µM with HCT-116 [2] stood at 57.1%; with MIA PaCa-2 [5] it was 58.4%. The inhibition in data set [3] was 65.4%; in data set [4] it was 66.2%.

`COc1cc(O)c2c(=O)cc(/C=C/c3cccc(Cl)c3F)oc2c1[C@H]1CC[N+](C)([O-])C[C@H]1O` (stereo partly drawn): the inhibition at 48 h, 10 µM in [1] came out at 17.2%. The inhibition at 10 µM was found to be 62.1% in the data set with HCT-116 [2] and 52.7% in the data set with MIA PaCa-2 [5]. Further, the figures for the inhibition in data set [3] and in [4] were 47.5% and 59.6%, respectively.

`C[N+]1([O-])CC[C@H](c2c(O)cc(O)c3c(=O)cc(/C=C/c4cc(Cl)cc(Cl)c4)oc23)[C@H](O)C1` (stereo partly drawn): the inhibition at 48 h, 10 µM in data set [1] was 14.8%. Also, the figures for the inhibition at 10 µM in the data set on HCT-116 [2] and in the data set on MIA PaCa-2 [5] were 5.7% and 11.3%, respectively. Moreover, the inhibition in data set [3] worked out at 25.6%; in data set [4] it was 28%.

For `COc1cc(O)c2c(=O)cc(/C=C/c3c(F)ccc(F)c3Cl)oc2c1[C@H]1CC[N+](C)([O-])C[C@H]1O` (stereo partly drawn), the inhibition at 48 h, 10 µM in data set [1] was 20%. For the same molecule, the inhibition at 10 µM with HCT-116 [2] was determined as 57.7%; in the data set on MIA PaCa-2 [5], 36.4%. The inhibition in data set [3] was 51.4%; in data set [4], 41.8%.

Consider `CCOc1cc(O)c2c(=O)cc(/C=C/c3c(F)cccc3Cl)oc2c1[C@H]1CC[N+](C)([O-])C[C@H]1O` (stereo partly drawn), for which the results for the GI50 in the data set on HCT-116 [6] and in the data set with MIA PaCa-2 [8] were above 10 µM and 8.03 µM, respectively. For the same molecule, the inhibition at 48 h, 10 µM in data set [1] came out at 22.8%. Further, the values for the inhibition at 10 µM in the data set on HCT-116 [2] and in the data set with MIA PaCa-2 [5] were 34.7% and 52.8%, respectively. Besides, the IC50 in data set [7] is above 10 µM; on CDK9/cyclin T1 it was 0.45 µM. The molecule further gave an inhibition in data set [3] of 37.4%. In addition, the GI50 at 48 h in data set [9] was above 100 µM.

The record behind these values is ChEMBL document CHEMBL5620385, “Orally bioavailable styryl derivative of rohitukine-N-oxide inhibits CDK9/T1 and the growth of pancreatic cancer cells” (Eur J Med Chem, 2023).
